This note sets out measurements from patent EP1377579B1 (Aventis Pharmaceuticals Inc., priority 2000, dated 2002).

Data set [1] concerns MDA-MB-435. Put plainly: In vitro proliferation assay (MTT), MDA-MB-435. In kind it is cell-based, human. The note with it: Homo sapiens. The essentials:
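MTT viability, 3 d compound treatment; seeding 1000–2500 cells/well, overnight attachment; formazan in DMSO, A570; IC50 fitted from raw absorbance.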

The test system of data set [2] is Colo-205. Put plainly: In vitro proliferation assay (MTT), Colo-205. Type of data set: cell-based. Particulars: Homo sapiens. The essentials:
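Colo-205 cells were seeded at 1000–2500 cells/well and allowed to attach overnight, then exposed to compound for 3 days. Viable cells were measured by MTT reduction (2–4 h, 37 °C), with DMSO-solubilised dye read at 570 nm. IC50 was derived from concentration–response data.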

Data set [3] can be described thus: Bioavailability experiment in mice given single intravenous cassette doses. The note with it: for Cls: mice plasma, single intravenous cassette dose; for Conc. in plasma / Conc. (ng/ml) in plasma: mice; for Conc. in plasma: single 15 mg/kg intravenous cassette dose (3 mg/kg/compound), BLQ = below assay quantification limit (approximately 1 ng/ml); for Conc. (ng/ml) in plasma: Cassette #1, single 18 mg/kg intravenous cassette dose, 24 h, BLQ = below assay quantification limit.

Data set [4] addresses cdk2/cyclin E (Homo sapiens, UniProt P24941). Put plainly: Cyclin-dependent kinase assay, cdk2/cyclin E. The note with it: CDK2 IC50, nM, GST-pRb substrate, 10 µM ATP.
The nature of data set [5]: Red blood cell binding, human whole blood. Type of data set: in vitro ADME. The note with it: 30 minutes at 37°C, 500 ng/ml. As to the method:
Compounds, including one positive control, are assessed for red blood cell (RBC) uptake, using a modified procedure based on the protocol reported in Sun, J.X.S., et al. High-performance liquid chromatographic analysis, plasma protein binding and red blood cell partitioning of phenprobamate. Biopharmaceutics and Drug Disposition, 8 (1987) 341-351.
Briefly, RBC uptake is evaluated by comparison of the levels in spiked plasma (n=3) and plasma isolated from spiked whole blood (n=3). Compounds are incubated with human and mouse whole blood, respectively, for 30 minutes at 37°C using a nominal concentration of 500 ng/ml. Following centrifugation, the plasma is removed and submitted for analysis. Each compound is also spiked into blank plasma at a nominal concentration of 500 ng/ml, and submitted for analysis. Levels in the two plasma samples (Cp' and Cp in the equation below) and the blood hematocrit are used to determine the red blood cell to plasma ratio (Crbc/Cp). (Crbc)/(Cp) = (Cpʹ)/(Cp•H)-((1-H))/(H) [formula] In equation 1, Cp' is the level of drug in the spiked "blank" plasma, Cp is the level of drug in the plasma of spiked whole blood, and H is the hematocrit. The hematocrit values are determined as 0.4 for human whole blood and 0.41 for mouse whole blood. The samples are analyzed with ESI LC/MS, using positive ion detection with an internal standard.
The red blood cell to plasma ratio is determined for each compound using equation 1. Tables 6 and 7 summarize the respective mean Crbc/Cp values and standard deviations for mouse and human whole blood, respectively, in descending order based on the red blood cell to plasma ratio, where"*" denotes Positive Control, and "ND" denotes Not Determined. MDL 108552 is included as a positive control for red blood cell uptake. Table 6. Red Blood Cell to Plasma Ratio for compounds in mouse whole blood

Data set [6] has as its system Jurkat. Put plainly: In vitro proliferation assay (MTT), Jurkat. In kind it is cell-based. Particulars: Homo sapiens, read-out: Jurkat Leuk. (IC50 µM). The method, boiled down:
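Plate 1000–2500 cells/well, RPMI 1640 + 5 % FBS, 3 mM L-glutamine; attach overnight → compound treatment 3 days → MTT, 37 C, 2–4 hr → remove medium, solubilize in DMSO → absorbance 570 nm → IC50.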

Data set [7] in a line: in vivo. The note with it: male, Hsd:ICR (CD-1), mouse, plasma.
The target in data set [8] is cdk1/cyclin B (Homo sapiens, UniProt P06493). Put plainly: Cyclin-dependent kinase assay, cdk1/cyclin B. Particulars: CDK1 IC50, nM, Histone H1, 10 µM ATP.
Protocol: The IC50 values for cdk1/cyclin B, cdk2/cyclin E, and cdk4/cyclin D1 inhibition are determined using the following methods: • The cdk1 sequence (accession number Y00272) is amplified by PCR and cloned into the BamHI and SalI sites of pFASTBAC1 (Life Technologies).
The cyclin B1 sequence (accession number M25753) is amplified by PCR and cloned into the BamHI and SalI sites of pFASTBAC1 (Life Technologies).
The insect cell (Sf9) expression is optimized for each of the CDK/cyclin pairs according to the manufacturer's protocols (Life Technologies). For cdk4-HA/cyclin D1-His6 an infection of 0.1 multiplicity of infection (MOI) for 48 hours gives the best expression levels of the complex as well as activity.
The viruses are added to the cells and the culture is incubated at 27°C for the desired time. The cells are harvested by centrifugation at 3000 rpm for 10 minutes. The cells are snap frozen on dry ice and stored at - 80°C.
Cell extracts are made following a standard procedure. The cell pellet is resuspended in lysis buffer (50 mM HEPES, pH 8.0, 10 mM MgCl2, 1 mM DTT, 2.5 mM EGTA, 1 mM EDTA, 10 mM β-glycerophosphate, 1 mM sodium vanadate, 1 mM sodium fluoride, 1 x Protease inhibitor cocktail). The cells are lysed using the microfluidizer (Microfluidics) for 20 minutes. Cell debris is removed by centrifugation at 100,000 x g. The cell extracts are aliquoted in 1 ml aliquots, frozen on dry ice, and stored at -80°C.
The kinase reactions are performed following a standard procedure. The enzyme and inhibitor are diluted in kinase buffer (50 mM HEPES, pH 8.0, 10 mM MgCl2, 2.5 mM EGTA, 10 mM β-glycerophosphate, 1 mM sodium vanadate, 1 mM sodium fluoride, and 1 mM DTT) and pre-incubated for 30 minutes. […] The cdk1 enzyme activity is assayed using Histone H1 (Sigma) in the presence of 10 µM ATP for 30 min at room temperature. The reactions are terminated by the addition of 50 µL of 10 mM cold ATP to stop the reactions. The reactions are transferred to a pre-soaked 96-well multi-screen plate containing 30 µL of 100% TCA per well. After incubation for one hour at room temperature, the plates are washed twice with 200 µl of 20% TCA, followed by 200 µl of 10% TCA and finally with 200 µl of 5% TCA. After drying the plates at room temperature, the filter plates are placed in adapter plates (Packard) and 40 µl of Microscint-O® (Packard) is added to each well. Top Seal A film is used to cover the plates before counting in a Top Count Scintillation Counter.
The % remained activity of the indicated Cdk/cyclin kinase complex in the presence of inhibitor is calculated by the ratio of cpm in the presence of inhibitor to cpm in the absence of inhibitor (%Activity = vi/vo x 100%).
The mark [9] stands for this setting: 3 mg/kg/compound (15 mg/kg Total Dose), Cassette #4.
[10] abbreviates: MDA-MB-435, MTT assay, value (SD, n) where given, read-out: MB-435 Breast (IC50 µM).
[11] abbreviates: COLO 205, MTT assay, value (SD, n) where given, read-out: Colo-205 Colon (IC50 µM).
[12] abbreviates: MTT assay, value (SD, n) where given.
[13] abbreviates: 3 mg/kg/compound (18 mg/kg Total Dose), Cassette #1.

Structures are written as SMILES. Like-named read-outs stand apart in the source and are kept apart here.

cdk1/cyclin B, sequence (P06493 whole entry): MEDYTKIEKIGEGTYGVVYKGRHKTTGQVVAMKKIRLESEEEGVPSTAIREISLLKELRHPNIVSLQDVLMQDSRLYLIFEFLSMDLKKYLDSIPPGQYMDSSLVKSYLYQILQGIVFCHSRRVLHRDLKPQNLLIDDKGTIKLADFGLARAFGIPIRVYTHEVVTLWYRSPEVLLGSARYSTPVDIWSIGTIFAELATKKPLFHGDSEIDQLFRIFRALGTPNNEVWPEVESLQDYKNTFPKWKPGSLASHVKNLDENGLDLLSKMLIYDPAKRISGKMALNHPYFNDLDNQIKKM
cdk1/cyclin B, sequence (P14635 whole entry partner): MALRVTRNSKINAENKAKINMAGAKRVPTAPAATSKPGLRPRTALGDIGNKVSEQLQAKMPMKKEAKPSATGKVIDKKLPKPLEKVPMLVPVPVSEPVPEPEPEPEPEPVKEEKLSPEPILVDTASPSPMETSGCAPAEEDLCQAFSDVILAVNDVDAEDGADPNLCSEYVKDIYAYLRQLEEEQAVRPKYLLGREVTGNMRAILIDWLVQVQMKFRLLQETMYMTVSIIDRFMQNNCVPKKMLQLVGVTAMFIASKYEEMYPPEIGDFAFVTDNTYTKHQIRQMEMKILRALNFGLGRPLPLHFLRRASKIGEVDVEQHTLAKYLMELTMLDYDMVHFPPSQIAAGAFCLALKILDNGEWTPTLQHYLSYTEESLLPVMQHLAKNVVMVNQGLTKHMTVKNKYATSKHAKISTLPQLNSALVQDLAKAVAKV

In the case of `Cl.Cl.N[C@H]1CC[C@H](Nc2nc(NC3CCN(C(=O)Oc4ccc([N+](=O)[O-])cc4)CC3)c3ncn(C4CCCC4)c3n2)CC1` [compound 89, trans-4-[2-(4-Amino-cyclohexylamino)-9-cyclopentyl-9H-purin-6-ylamino]-piperidine-1-carboxylic acid 4-nitro-phenyl ester dihydrochloride], the IC50 in data set [1] (MDA-MB-435, read-out: MB-435 Breast (IC50 µM)) came to 0.06 µM. In data set [2] (COLO 205, read-out: Colo-205 Colon (IC50 µM)), the half-inhibitory concentration (IC50) worked out at 0.01 µM. The compound further registered a Cls in data set [3] (setting [9]) of 136.5 mL/min/kg. Besides, the Conc. in plasma entry in data set [3] (Cassette #4, 24 h) is “BLQ”. In data set [4], this compound returned an IC50 of 42 nM. Moreover, the “Mean Red Blood Cell to Plasma Ratio” value in data set [5] is reported as 4.2. Further, the IC50 in data set [6] was found to be 0.07 µM. In data set [7] (intravenous, 3 mg/kg), this compound came in with a concentration at 0.083 h of 642 ± 49.5 ng/mL, a concentration at 0.25 h of 303 ± 34.3 ng/mL, a concentration at 0.5 h of 142 ± 2.7 ng/mL and a concentration at 1 h of 52.4 ± 4.2 ng/mL. In data set [7] (intravenous, 3 mg/kg), this compound came in with a concentration at 3 h of 17 ± 4.7 ng/mL, a concentration at 6 h of 3.7 ± 1 ng/mL and a concentration at 8 h of 3.8 ± 0.5 ng/mL. In data set [7] (iv, 3 mg/kg), the AUC(0-inf) came to 366 ng·h/mL, the peak level (Cmax) was 642 ng/mL and the half-life was 1.8 h. In data set [8], this compound registered an IC50 of 20 nM.

With `Cl.Cl.N[C@H]1CC[C@H](Nc2nc(NC3CCN(S(=O)(=O)c4ccc(F)cc4)CC3)c3ncn(C4CCCC4)c3n2)CC1` [compound 106, trans-N^2-(4-Amino-cyclohexyl)-9-cyclopentyl-N^6-[1-(4-fluoro-benzenesulfonyl)-piperidin-4-yl]-9H-purine-2,6-diamine dihydrochloride], the IC50 in data set [1] (setting [10]) amounted to 0.12 µM. Also, the IC50 in data set [2] (setting [11]) is 0.13 µM. In addition, the Cls in data set [3] (setting [9]) is 113.7 mL/min/kg. In data set [3] (Cassette #4, 8 h, Mean ± SD), the Conc. in plasma result was “BLQ^a”. In data set [3] (Cassette #4, 24 h), the Conc. in plasma entry is on record as “BLQ”. The compound further gave an IC50 in data set [4] of 8 nM. The “Mean Red Blood Cell to Plasma Ratio” value in data set [5] stood at 3.9. Further, the IC50 in data set [6] (setting [12]) is 0.19 µM. In data set [7] (intravenous, 3 mg/kg), this compound displayed a concentration at 0.083 h of 765 ± 64.3 ng/mL, a concentration at 0.25 h of 397 ± 59.2 ng/mL, a concentration at 0.5 h of 185 ± 13 ng/mL and a concentration at 1 h of 63.3 ± 0.5 ng/mL. In data set [7] (intravenous, 3 mg/kg), this compound registered a concentration at 3 h of 21.8 ± 6.1 ng/mL and a concentration at 6 h of 4.3 ± 0.8 ng/mL. In data set [7] (iv, 3 mg/kg), this compound gave an AUC(0-inf) of 440 ng·h/mL, a maximum concentration (Cmax) of 765 ng/mL and a half-life of 1.3 h. The compound further yielded an IC50 in data set [8] of 8 nM.

For the compound `Cl.Cl.N#Cc1ccc(S(=O)(=O)N2CCC(Nc3nc(N[C@H]4CC[C@H](N)CC4)nc4c3ncn4C3CCCC3)CC2)cc1` [compound 109, trans-N^2-(4-Amino-cyclohexyl)-9-cyclopentyl-N^6-[1-(4-cyano-benzenesulfonyl)-piperidin-4-yl]-9H-purine-2,6-diamine dihydrochloride], in data set [1] (setting [10]), the 50% inhibitory concentration (IC50) is 0.11 µM. Further, the IC50 in data set [2] (setting [11]) stood at 0.18 µM. The “Conc. (ng/ml) in plasma” value in data set [3] is listed as “BLQ”. This compound showed a Cls in data set [3] (setting [13]) of 45.1 mL/min/kg. The compound further yielded an IC50 in data set [4] of 45 nM. For the same compound, the “Mean Red Blood Cell to Plasma Ratio” value in data set [5] is reported as 5.0. Further, in data set [6] (setting [12]), the IC50 turned out to be 0.44 µM. In data set [7] (iv, 3 mg/kg), this compound gave an AUC(0-inf) of 1110 ng·h/mL, a Cmax of 1690 ng/mL and a half-life of 2 h. Also, in data set [7] (iv, 18 mg/kg), the concentration at 0.083 h stood at 1690 ± 224 ng/mL, the concentration at 0.25 h came out at 915 ± 15.2 ng/mL, the concentration at 0.5 h came to 514 ± 45.2 ng/mL and the concentration at 1 h came to 238 ± 38.7 ng/mL. For the same compound, in data set [7] (iv, 18 mg/kg), the concentration at 3 h is 30.1 ± 8.5 ng/mL, the concentration at 6 h was 9.5 ± 1.8 ng/mL and the concentration at 8 h was found to be 5.5 ± 0.9 ng/mL. The IC50 in data set [8] was 18 nM.

`COC(=O)c1ccccc1S(=O)(=O)N1CCC(Nc2nc(N[C@H]3CC[C@H](N)CC3)nc3c2ncn3C2CCCC2)CC1.Cl.Cl` [compound 111, trans-2-{4-[2-(4-Amino-cyclohexylamino)-9-cyclopentyl-9H-purin-6-ylamino]-piperidine-1-sulfonyl}-benzoic acid methyl ester dihydrochloride]: the IC50 in data set [1] (setting [10]) stood at 0.43 µM. In data set [2] (setting [11]), the IC50 was found to be 0.09 µM. Further, the “Conc. (ng/ml) in plasma” value in data set [3] is reported as “BLQ”. For the same compound, the Cls in data set [3] (setting [13]) came to 34.2 mL/min/kg. Also, in data set [4], half-maximal inhibition (IC50) was put at 9 nM. The “Mean Red Blood Cell to Plasma Ratio” value in data set [5] is recorded as 1.2. In addition, in data set [6] (setting [12]), the IC50 came to 1.05 µM. In data set [7] (iv, 3 mg/kg), this compound had an AUC(0-inf) of 1460 ng·h/mL, a Cmax of 2450 ng/mL and a half-life of 2 h. In data set [7] (iv, 18 mg/kg), the concentration at 0.083 h was 2450 ± 287 ng/mL, the concentration at 0.25 h is 1090 ± 129 ng/mL, the concentration at 0.5 h came out at 588 ± 29.3 ng/mL and the concentration at 1 h worked out at 335 ± 81.3 ng/mL. In data set [7] (iv, 18 mg/kg), this compound came in with a concentration at 3 h of 33.8 ± 6.8 ng/mL, a concentration at 6 h of 10.9 ± 3 ng/mL and a concentration at 8 h of 6 ± 2 ng/mL. Moreover, in data set [8], 17 nM corresponded to half-maximal inhibition (IC50).

Turning to `Cl.Cl.N[C@H]1CC[C@H](Nc2nc(NC3CCN(S(=O)(=O)c4cccc(C(F)(F)F)c4)CC3)c3ncn(C4CCCC4)c3n2)CC1` [compound 112, trans-N^2-(4-Amino-cyclohexyl)-9-cyclopentyl-N^6-[1-(3-trifluoromethyl-benzenesulfonyl)-piperidin-4-yl]-9H-purine-2,6-diamine dihydrochloride], in data set [1] (setting [10]), the IC50 was found to be 0.87 µM. The IC50 in data set [2] (setting [11]) is < 0.02 µM. The Cls in data set [3] (3 mg/kg/compound (15 mg/kg Total Dose), Cassette #3) amounted to 34.2 mL/min/kg. Moreover, the Conc. in plasma result in data set [3] (Cassette #3, 24 h) is “BLQ”. Moreover, in data set [4], the IC50 stood at 48 nM. Besides, in data set [5], the “Mean Red Blood Cell to Plasma Ratio” value turned out to be 3.7. Besides, in data set [6] (setting [12]), the half-inhibitory concentration (IC50) was found to be 0.11 µM. In data set [7] (intravenous, 3 mg/kg), this compound yielded a concentration at 0.083 h of 2810 ± 272 ng/mL, a concentration at 0.25 h of 1700 ± 312 ng/mL, a concentration at 0.5 h of 435 ± 48 ng/mL and a concentration at 1 h of 175 ± 42.4 ng/mL. Further, in data set [7] (intravenous, 3 mg/kg), the concentration at 3 h is 45 ± 7.2 ng/mL, the concentration at 6 h amounted to 17.7 ± 1.7 ng/mL and the concentration at 8 h is 13.6 ± 3.7 ng/mL. In data set [7] (iv, 3 mg/kg), this compound showed an AUC(0-inf) of 1460 ng·h/mL, a Cmax of 2810 ng/mL and a half-life of 2.8 h. This compound showed a concentration for half-maximal inhibition (IC50) in data set [8] of 32 nM.

The term IC50 denotes the midpoint of a concentration-inhibition curve. Broadly, the AUC(0-inf) is the area under the concentration-time curve extrapolated to infinity. Lower therefore signals less exposure. As a reminder, the Cmax is the maximum level reached in the sampled fluid or tissue. One may read the half-life as how long it takes for the measured level to halve. Read a high half-life as slow decline.
